Measured values reported in patent US9492470B2, “Use of HMGA-targeted phosphorothioate DNA aptamers to suppress carcinogenic activity and increase sensitivity to chemotherapy agents in human cancer cells” (MIAMI UNIVERSITY, priority 2012, dated 2016).
Read-outs that look alike come from different tables or passages of the source. In the oligonucleotide strings, read from the 5' end, every base follows the letter of its sugar. An asterisk marks phosphorothioate; unmarked linkages are phosphodiester. Other units and linkages are bracketed, terminal groups are in braces. A string of capitals states the bases alone. d = 2'-deoxy (DNA)

What was measured:
AsPC-1 cells [1] = test: Cell growth with gemcitabine treatment after sDNA transfection, AsPC-1; format: cell-based, Human; conditions: for Fold change in numbers of viable cells normalized relative to TC: AsPC-1, 0.1 ug sDNA, 96 hours
Description: (§1) Cells were fixed after 96 hours and numbers of viable cells counted by measuring the absorbance at 570 nm.
(§2) Cells were transfected with 0.1 μg of TC-sDNA, Mix-sDNA, CG-sDNA, and AT-sDNA.

AsPC-1 cells [2] = conditions: for cell death: 96 h, compared to non-transfected cells; for cells dead compared to UT: AsPC-1, 0.1 ug sDNA, versus untransfected (UT) cells; for Fold change in numbers of viable cells between TC and sDNA transfected cells (in parentheses) / Fold change in numbers of viable cells between UT and transfected cells: 96 h after transfection
Description: AsPC-1 cells were grown in Roswell Park Memorial Institute medium supplemented with 10% FBS, and 1% penicillin-streptomycin.
Transfections using sDNA at concentrations of 0.1 and 0.25 μg per well were conducted with 5×10^4 and 1×10^5 Miapaca-2 and AsPC-1 cells, respectively, in 24-well plates and all data were collected in quadruplicate. Miapaca-2 and AsPC-1 cells were transfected with sDNA using Lipofectamine 2000 (Invitrogen,™ Life Technologies Corporation, Carlsbad, Calif.) according to the manufacturer's protocol.
Briefly, AsPC-1 cells grown in 10% FBS containing RPIM medium were trypsinized using a trypsin-EDTA solution commercially available from the Sigma-Aldrich, and used to seed fresh media in a 24-well plate with 10^5 cells per well.
After 48 hours, the cells were transfected with the selected sDNA using Lipofectamine 2000 (Invitrogen,™ Life Technologies Corporation, Carlsbad, Calif.) according to the manufacturer's protocol. […] The cells were then fixed with 4% paraformaldehyde in PBS for 20 minutes and stained in 0.1% crystal violet stain (Sigma-Aldrich) for 30 minutes. The cells were washed under running tap water, air dried, and extracted with 0.2% Triton™ X-100 for 30 minutes. […] The absorbance of the Triton X-100 was measured at 570 nm using a HTS microplate reader. All results were analyzed for statistical significance using a student's unpaired t-test.

AsPC-1 cells [3] = test: Cell growth with gemcitabine treatment after sDNA transfection, AsPC-1; format: cell-based, Human; conditions: for cells died: AsPC-1, 0.25 μg AT-sDNA
Miapaca-2 cells [4] = test: Cell growth with gemcitabine treatment after sDNA transfection, Miapaca-2; format: cell-based, Human; conditions: 96 hours; for Fold change in numbers of viable cells normalized relative to TC: Miapaca-2, 0.1 ug sDNA
Description: as §1, §2

Miapaca-2 cells [5] = test: Cell viability (crystal violet) after sDNA transfection, Miapaca-2; format: cell-based, Human; conditions: for cells dead compared to TC: versus transfection control (TC) cells; for cells dead compared to UT: Miapaca-2, 0.1 ug sDNA, versus untransfected (UT) cells; for Fold change in numbers of viable cells between TC and sDNA transfected cells (in parentheses) / Fold change in numbers of viable cells between UT and transfected cells: 96 h after transfection
Description: The absorbance was measured at 570 nm in quadruplicate. All data from control cells were combined and averaged.

Miapaca-2 cells [6] = test: Cell growth with gemcitabine treatment after sDNA transfection, Miapaca-2; format: cell-based, Human; conditions: for Fold change in numbers of viable cells normalized relative to TC: 96 hours
[7] = system: HMGA1 expression levels in AsPC-1 cells; test: Western blot of HMGA1 expression levels in AsPC-1 nuclear extracts; format: cell-based, Human; conditions: AsPC-1, 0.5 μg sDNA in six well plates, 48 hours
Description: Cytoplasmic and nuclear protein extracts were prepared from pancreatic cancer cells using NE-PER extraction kit (Thermo Scientific, Rockford, Ill.). Protein concentrations were determined using a bicinchoninic acid assay with bovine serum albumin as a standard. Nuclear proteins that contained 25 or 15 μg total protein were separated by SDS-PAGE with a 4%-20% Criterion gradient gel (Bio-Rad Laboratories, Inc., Hercules, Calif.). The proteins were transferred to immuno-blot PVDF membrane (0.2 μm) (Bio-Rad Laboratories, Inc., Hercules, Calif.) and blocked in 5% dry milk in PBS supplemented with 0.2% Tween 20 (PBST). The PVDF membranes were then probed with 1:1000 dilution of rabbit anti-HMGA1 antibody (Santa Cruz Biotechnology Inc, Santa Cruz, Calif.) and 1:100 dilution of rabbit anti-HMGA2 antibody (Abcam plc, Cambridge, Mass.), in 3% BSA in PBST at 4° C. overnight. After three washes with PBST, the membrane was blotted with secondary antibody, ant-rabbit IgG-HRP (cell signaling) 1:5000 dilution in 1% dry milk in PBST at room temperature for 1 hour. An enhanced chemiluminescence detection (ECL, GE Healthcare Life Sciences, Piscataway, N.J.) system was used to detect target proteins. To ensure equal loading of the proteins between groups, membranes were re-probed with anti-TATA binding protein antibody (Abcam plc, Cambridge, Mass.). […] The control was nuclear extract from untreated cells. Triplicates of each sample were run on the gel and analyzed with the Alpha Imager. The relative HMGA1 densities were obtained by dividing HMGA 1 density by TBP density. […] TATA binding protein (TBP) was used as a loading control. […] HMGA1 expression levels were examined after transfection with CG-sDNA or AT-sDNA to determine if the transfection procedure affected HMGA1 expression levels. The AT-sDNA used for transfection contained an 18 adenine/thymine stretch enabling HMGA1 to bind the DNA with all three AT-hooks. As a negative control, a non-HMGA1-targeted sDNA containing an equal length of DNA but with no AT-stretches, i.e. CG-sDNA, was used. […]

AT-sDNA: AT-rich phosphorothioate DNA, 5′-G*G*G*A*A*A*A*A*A*T*T*T*T*T*T*A*A*A*A*A*A*C*C*C-3′ (SEQ ID NO: 1), sulfur substitution at every position (DNA dG*dG*dG*dA*dA*dA*dA*dA*dA*dT*dT*dT*dT*dT*dT*dA*dA*dA*dA*dA*dA*dC*dC*dC)
cells dying (AsPC-1 cells [1]; AsPC-1, 0.1 μg AT-sDNA, 100 nM gemcitabine): 29.4% | Fold change in numbers of viable cells normalized relative to TC (AsPC-1 cells [1]; Gemcitabine 0 nM): −1.44 fold | Fold change in numbers of viable cells normalized relative to TC (AsPC-1 cells [1]; Gemcitabine 1 nM): −1.58 fold | Fold change in numbers of viable cells normalized relative to TC (AsPC-1 cells [1]; Gemcitabine 10 nM): −1.71 fold | Fold change in numbers of viable cells normalized relative to TC (AsPC-1 cells [1]; Gemcitabine 30 nM): −1.86 fold | Fold change in numbers of viable cells normalized relative to TC (AsPC-1 cells [1]; Gemcitabine 100 nM): −2.04 fold | Fold change in numbers of viable cells normalized relative to TC (AsPC-1 cells [1]; Gemcitabine 1000 nM): −2.33 fold | cell death (AsPC-1 cells [2]; AsPC-1, 0.1 μg sDNA per well): 33% | cells dead compared to TC (AsPC-1 cells [2]; AsPC-1, 0.1 μg sDNA, 48 hrs, versus transfection control (TC) cells): 22.3% | cells dead compared to UT (AsPC-1 cells [2]; 48 hrs): 42.0% | Fold change in numbers of viable cells between TC and sDNA transfected cells (in parentheses) (AsPC-1 cells [2]; AsPC-1, 0.1 μg sDNA): −1.44 fold | Fold change in numbers of viable cells between UT and transfected cells (AsPC-1 cells [2]; AsPC-1, 0.1 μg sDNA): −1.57 fold | cells dead compared to TC (AsPC-1 cells [2]; AsPC-1, 0.1 μg sDNA, 96 hrs, versus transfection control (TC) cells): 30.7% | cells dead compared to UT (AsPC-1 cells [2]; 96 hrs): 36.1% | cell death (AsPC-1 cells [2]; AsPC-1, 0.25 μg sDNA per well): 44% | Fold change in numbers of viable cells between TC and sDNA transfected cells (in parentheses) (AsPC-1 cells [2]; AsPC-1, 0.25 μg sDNA): −1.65 fold | Fold change in numbers of viable cells between UT and transfected cells (AsPC-1 cells [2]; AsPC-1, 0.25 μg sDNA): −1.79 fold | cell death compared to TC (AsPC-1 cells [2]; AsPC-1, 0.25 μg sDNA, 96 hours, versus TC cells): 39.4% | cell death (AsPC-1 cells [2]; AsPC-1, 1.0 μg sDNA per well): 57% | cells dead compared to TC (AsPC-1 cells [2]; AsPC-1, 1.0 μg sDNA, 96 hours, versus TC cells): 53.6% | cell death (AsPC-1 cells [3]; AsPC-1, 0.025 μg AT-sDNA, 1000 nM gemcitabine): 31% | cells dying (AsPC-1 cells [3]; AsPC-1, 0.1 μg AT-sDNA, 1 nM gemcitabine): 9.0% | cells died (AsPC-1 cells [3]; 1 nM gemcitabine): 14.9% | cells died (AsPC-1 cells [3]; 100 nM gemcitabine): 41.7% | overall drop in the number of viable cells after gemcitabine treatment (AsPC-1 cells [3]; AsPC-1, AT-sDNA transfection): 2-4 fold | cells dead / change in cell viability (Miapaca-2 cells [4]; Miapaca-2, 0.1 μg sDNA, 1 nM gemcitabine): 33.6% | cells surviving (Miapaca-2 cells [4]; Miapaca-2, 0.1 μg sDNA, 10 nM gemcitabine, normalized to 0 nM gemcitabine): 51.2% | Fold change in numbers of viable cells normalized relative to TC (Miapaca-2 cells [4]; Gemcitabine 0 nM): −1.52 fold | Fold change in numbers of viable cells normalized relative to TC (Miapaca-2 cells [4]; Gemcitabine 10 nM): −1.79 fold | Fold change in numbers of viable cells normalized relative to TC (Miapaca-2 cells [4]; Gemcitabine 30 nM): −7.07 fold | Fold change in numbers of viable cells normalized relative to TC (Miapaca-2 cells [4]; Gemcitabine 100 nM): −9.58 fold | Fold change in numbers of viable cells normalized relative to TC (Miapaca-2 cells [4]; Gemcitabine 1000 nM): −6.82 fold | cells dead compared to TC (Miapaca-2 cells [5]; Miapaca-2, 0.1 μg sDNA, 48 hrs): 17.2% | cells dead compared to UT (Miapaca-2 cells [5]; 48 hrs): 48.4% | Fold change in numbers of viable cells between TC and sDNA transfected cells (in parentheses) (Miapaca-2 cells [5]; Miapaca-2, 0.1 μg sDNA): −1.52 fold | Fold change in numbers of viable cells between UT and transfected cells (Miapaca-2 cells [5]; Miapaca-2, 0.1 μg sDNA): −2.36 fold | cells dead compared to TC (Miapaca-2 cells [5]; Miapaca-2, 0.1 μg sDNA, 96 hrs): 34.1% | cells dead compared to UT (Miapaca-2 cells [5]; 96 hrs): 58.9% | Fold change in numbers of viable cells between TC and sDNA transfected cells (in parentheses) (Miapaca-2 cells [5]; Miapaca-2, 0.25 μg sDNA): −3.68 fold | Fold change in numbers of viable cells between UT and transfected cells (Miapaca-2 cells [5]; Miapaca-2, 0.25 μg sDNA): −6.07 fold | Fold change in numbers of viable cells normalized relative to TC (Miapaca-2 cells [6]; Miapaca-2, 0.1 ug sDNA, Gemcitabine 1 nM): −1.38 fold | Fold change in numbers of viable cells normalized relative to TC (Miapaca-2 cells [6]; Miapaca-2, 0.25 ug sDNA, Gemcitabine 0 nM): −3.68 fold | Fold change in numbers of viable cells normalized relative to TC (Miapaca-2 cells [6]; Miapaca-2, 0.25 ug sDNA, Gemcitabine 1 nM): −4.45 fold | Fold change in numbers of viable cells normalized relative to TC (Miapaca-2 cells [6]; Miapaca-2, 0.25 ug sDNA, Gemcitabine 10 nM): −4.14 fold | Fold change in numbers of viable cells normalized relative to TC (Miapaca-2 cells [6]; Miapaca-2, 0.25 ug sDNA, Gemcitabine 30 nM): −8.32 fold | Fold change in numbers of viable cells normalized relative to TC (Miapaca-2 cells [6]; Miapaca-2, 0.25 ug sDNA, Gemcitabine 100 nM): −11.81 fold | Fold change in numbers of viable cells normalized relative to TC (Miapaca-2 cells [6]; Miapaca-2, 0.25 ug sDNA, Gemcitabine 1000 nM): −11.31 fold | overall drop in the number of viable cells (Miapaca-2 cells [6]; Miapaca-2, either 0.1 or 0.25 μg AT-sDNA, 100 nm or greater gemcitabine): ~10 fold | change in HMGA1 expression levels after sDNA transfection [7]: no changes
